Laboratory results as given in patent US9840513B2 (AbbVie S.à.r.l., priority 2015, dated 2017).

Experiments:
[1] = molecular target: T1, F508delCFTR cell surface expression in CFBE41o-F508delCFTR-HRP cells (Homo sapiens, UniProt P13569, DEL508-508); assay: Cell Surface Expression-Horse Radish Peroxidase (CSE-HRP) Assay; format: cell-based; settings: for EC50: CFBE41o-F508delCFTR-HRP cells, 18-24 hours at 33° C., 8-point curve, highest concentration 20 μM; for Maximum % activity (%): maximum at any tested concentration, normalized to on-plate positive control (3 μM)
T1 construct: fused on or other part: Horseradish peroxidase (HRP) reporter inserted in the fourth exofacial (extracellular) loop of CFTR; expression is doxycycline-inducible
How it was run: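 Correctors incubated 18-24 h at 33 °C on doxycycline-induced (0.5 μg/mL, 72 h) CFBE41o-F508delCFTR-HRP cells, 3-fold series from 20 μM. After DPBS washes, luminol luminescence read; activity expressed relative to DMSO and a 3 μM positive control, EC50 fitted from triplicate plates.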

[2] = molecular target: T2, F508delCFTR in primary hBE cells with F508del/F508del CFTR mutation (Homo sapiens, UniProt P13569, DEL508-508); assay: Transepithelial Clamp Circuit on Human Bronchial Epithelial Cells Conductance Assay (hBE-TECC); format: cell-based; settings: for EC50: primary hBE cells F508del/F508del, 18-24 hours at 37° C., equivalent short circuit current, 6 concentrations; for Maximum % activity (%): relative to positive control (3 μM) coupled with control potentiator
T2 construct: cells isolated from CF patients with the homozygous mutation; endogenous in cells; host or cells: primary human bronchial epithelial (hBE) cells from F508del/F508del CF patients
How it was run: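 Primary F508del/F508del hBE cells grown 35 days at air-liquid interface, treated basolaterally with correctors 18-24 h at 37° C. Ieq (Vt/Rt) at 36.5° C, pH 7.4, after benzamil, forskolin 10 μM, control potentiator, bumetanide; 6 concentrations normalized to DMSO and 3 μM positive-control corrector, EC50 by 4-parameter fit.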

T1 sequence (P13569 with tags, fused parts or gaps DEL508-508 limits assumed): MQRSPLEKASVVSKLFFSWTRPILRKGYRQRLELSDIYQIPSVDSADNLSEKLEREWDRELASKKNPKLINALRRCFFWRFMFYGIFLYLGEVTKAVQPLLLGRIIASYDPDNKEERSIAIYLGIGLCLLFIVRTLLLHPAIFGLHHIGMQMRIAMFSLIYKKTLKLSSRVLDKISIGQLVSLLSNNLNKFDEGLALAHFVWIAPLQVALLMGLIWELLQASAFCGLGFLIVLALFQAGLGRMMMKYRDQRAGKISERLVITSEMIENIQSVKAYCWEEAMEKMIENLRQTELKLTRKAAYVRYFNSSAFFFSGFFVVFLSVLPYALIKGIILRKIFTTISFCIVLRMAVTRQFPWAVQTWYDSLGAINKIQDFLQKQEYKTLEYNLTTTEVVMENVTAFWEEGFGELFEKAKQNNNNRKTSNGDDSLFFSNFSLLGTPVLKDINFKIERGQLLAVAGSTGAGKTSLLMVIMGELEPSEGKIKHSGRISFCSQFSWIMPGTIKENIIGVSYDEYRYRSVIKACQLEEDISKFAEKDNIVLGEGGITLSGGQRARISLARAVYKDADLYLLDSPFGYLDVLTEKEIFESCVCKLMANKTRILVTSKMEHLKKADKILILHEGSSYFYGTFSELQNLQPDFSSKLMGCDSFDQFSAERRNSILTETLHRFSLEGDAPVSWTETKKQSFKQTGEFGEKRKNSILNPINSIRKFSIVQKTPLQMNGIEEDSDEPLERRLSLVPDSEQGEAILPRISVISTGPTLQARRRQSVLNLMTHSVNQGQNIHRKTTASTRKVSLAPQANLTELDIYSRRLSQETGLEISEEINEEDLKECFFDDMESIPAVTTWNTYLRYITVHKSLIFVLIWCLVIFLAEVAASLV
T1 sequence (P13569 919-1480 limits assumed, stated change not applied): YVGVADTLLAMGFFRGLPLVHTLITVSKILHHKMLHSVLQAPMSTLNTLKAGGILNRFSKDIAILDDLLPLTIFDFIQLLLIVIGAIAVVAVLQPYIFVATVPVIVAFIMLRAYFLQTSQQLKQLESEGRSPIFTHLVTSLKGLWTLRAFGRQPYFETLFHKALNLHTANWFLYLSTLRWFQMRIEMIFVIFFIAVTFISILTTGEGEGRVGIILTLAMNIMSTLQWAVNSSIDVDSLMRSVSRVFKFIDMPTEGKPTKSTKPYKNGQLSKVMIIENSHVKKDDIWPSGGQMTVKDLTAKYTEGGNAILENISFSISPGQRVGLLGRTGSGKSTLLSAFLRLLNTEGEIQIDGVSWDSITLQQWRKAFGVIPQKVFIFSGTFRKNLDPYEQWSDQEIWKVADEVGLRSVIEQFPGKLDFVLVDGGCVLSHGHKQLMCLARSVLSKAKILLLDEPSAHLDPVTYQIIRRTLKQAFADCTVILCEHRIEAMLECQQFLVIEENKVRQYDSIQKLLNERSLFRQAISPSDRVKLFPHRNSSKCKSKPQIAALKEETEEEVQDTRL
T2 sequence (P13569 with tags, fused parts or gaps DEL508-508): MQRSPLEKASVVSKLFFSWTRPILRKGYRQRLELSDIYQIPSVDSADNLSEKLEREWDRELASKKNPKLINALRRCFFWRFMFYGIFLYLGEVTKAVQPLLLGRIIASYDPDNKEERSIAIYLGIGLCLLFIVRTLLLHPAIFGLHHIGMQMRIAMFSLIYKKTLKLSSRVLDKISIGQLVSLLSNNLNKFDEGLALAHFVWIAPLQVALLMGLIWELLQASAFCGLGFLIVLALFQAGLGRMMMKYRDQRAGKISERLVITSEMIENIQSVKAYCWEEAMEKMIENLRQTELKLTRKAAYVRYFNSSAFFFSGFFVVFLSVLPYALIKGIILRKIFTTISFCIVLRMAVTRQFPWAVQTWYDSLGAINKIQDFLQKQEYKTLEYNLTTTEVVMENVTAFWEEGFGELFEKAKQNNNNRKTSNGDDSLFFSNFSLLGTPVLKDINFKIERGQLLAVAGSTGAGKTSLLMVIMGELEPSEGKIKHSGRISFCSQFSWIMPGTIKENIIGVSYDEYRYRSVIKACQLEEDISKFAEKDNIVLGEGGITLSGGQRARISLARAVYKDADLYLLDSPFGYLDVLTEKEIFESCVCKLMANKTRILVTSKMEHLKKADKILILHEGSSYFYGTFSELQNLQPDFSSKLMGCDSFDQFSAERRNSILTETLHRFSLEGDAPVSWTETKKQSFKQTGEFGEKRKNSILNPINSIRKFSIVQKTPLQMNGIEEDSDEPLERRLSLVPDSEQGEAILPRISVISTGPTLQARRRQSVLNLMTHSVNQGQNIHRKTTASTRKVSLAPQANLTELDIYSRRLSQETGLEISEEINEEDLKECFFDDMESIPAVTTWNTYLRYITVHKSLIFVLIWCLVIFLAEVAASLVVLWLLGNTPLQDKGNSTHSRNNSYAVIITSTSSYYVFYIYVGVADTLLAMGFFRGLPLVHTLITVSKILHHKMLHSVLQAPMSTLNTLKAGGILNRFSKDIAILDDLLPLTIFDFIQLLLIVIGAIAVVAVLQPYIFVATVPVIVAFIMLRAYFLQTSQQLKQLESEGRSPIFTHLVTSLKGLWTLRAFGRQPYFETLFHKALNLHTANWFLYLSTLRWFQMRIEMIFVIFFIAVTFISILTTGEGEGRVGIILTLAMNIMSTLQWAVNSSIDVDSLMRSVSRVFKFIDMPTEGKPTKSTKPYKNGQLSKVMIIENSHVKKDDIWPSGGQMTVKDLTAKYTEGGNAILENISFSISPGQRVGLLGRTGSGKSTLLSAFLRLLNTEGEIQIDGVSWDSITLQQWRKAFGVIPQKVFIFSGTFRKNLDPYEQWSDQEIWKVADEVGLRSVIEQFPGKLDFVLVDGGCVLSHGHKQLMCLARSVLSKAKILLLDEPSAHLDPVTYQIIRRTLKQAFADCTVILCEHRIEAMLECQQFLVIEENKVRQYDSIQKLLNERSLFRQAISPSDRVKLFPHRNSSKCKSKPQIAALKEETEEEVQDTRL

Row | Structure (SMILES) | EC50 [1] [nM] | Maximum % activity (%) [1] [%] | EC50 [2] [nM] | Maximum % activity (%) [2] [%]
1 | COc1ccc2c(c1)O[C@@H](c1ccc(C(=O)NCC(O)CO)cn1)C[C@H]2NC(=O)[C@@]1(C)COc2cc3c(cc21)OC(F)(F)O3 (stereo partly drawn) [Example 243, 6-[(2R,4R)-4-{[(7R)-2,2-difluoro-7-methyl-6,7-dihydro-2H-furo[2,3-f][1,3]benzodioxole-7-carbonyl]amino}-7-methoxy-3,4-dihydro-2H-1-benzopyran-2-yl]-N-(2,3-dihydroxypropyl)pyridine-3-carboxamide] | 70 | 112 | 21 | 87
2 | COc1ccc2c(c1)O[C@@H](c1ccc(C(=O)N3C[C@@H](O)[C@H](O)C3)cn1)C[C@H]2NC(=O)[C@@]1(C)COc2cc3c(cc21)OC(F)(F)O3 [Example 248, (7R)—N-[(2R,4R)-2-{5-[(3R,4R)-3,4-dihydroxypyrrolidine-1-carbonyl]pyridin-2-yl}-7-methoxy-3,4-dihydro-2H-1-benzopyran-4-yl]-2,2-difluoro-7-methyl-6,7-dihydro-2H-furo[2,3-f][1,3]benzodioxole-7-carboxamide] | 90 | 116 | 32 | 105
3 | COc1ccc2c(c1)O[C@@H](c1cnc(N3C[C@@H](O)[C@H](O)C3)cn1)C[C@H]2NC(=O)[C@@]1(C)COc2cc3c(cc21)OC(F)(F)O3 [Example 250, (7R)—N-[(2R,4R)-2-{5-[(3R,4R)-3,4-dihydroxypyrrolidin-1-yl]pyrazin-2-yl}-7-methoxy-3,4-dihydro-2H-1-benzopyran-4-yl]-2,2-difluoro-7-methyl-6,7-dihydro-2H-furo[2,3-f][1,3]benzodioxole-7-carboxamide] | 20 | 135 | 1 | 95
4 | COc1ccc2c(c1)O[C@@H](c1ccc(N3C[C@@H](O)[C@H](O)C3)nn1)C[C@H]2NC(=O)[C@@]1(C)COc2cc3c(cc21)OC(F)(F)O3 [Example 251, (7R)—N-[(2R,4R)-2-{6-[(3R,4R)-3,4-dihydroxypyrrolidin-1-yl]pyridazin-3-yl}-7-methoxy-3,4-dihydro-2H-1-benzopyran-4-yl]-2,2-difluoro-7-methyl-6,7-dihydro-2H-furo[2,3-f][1,3]benzodioxole-7-carboxamide] | 30 | 128 | 5 | 86
5 | COc1ccc2c(c1)OC(c1ccc(OC[C@@H](O)CO)nn1)C[C@H]2NC(=O)[C@@]1(C)COc2cc3c(cc21)OC(F)(F)O3 (stereo partly drawn) [Example 252, (7R)—N-[(4R)-2-{6-[(2S)-2,3-dihydroxypropoxy]pyridazin-3-yl}-7-methoxy-3,4-dihydro-2H-1-benzopyran-4-yl]-2,2-difluoro-7-methyl-6,7-dihydro-2H-furo[2,3-f][1,3]benzodioxole-7-carboxamide] | 90 | 110 | 32 | 106
6 | C[C@]1(C(=O)N[C@@H]2C[C@H]([C@H]3CC[C@H](C(=O)N4C[C@H](O)[C@@H](O)C4)CC3)Oc3cc(OC(F)(F)F)ccc32)COc2cc3c(cc21)OC(F)(F)O3 [Example 256, (7R)—N-[(2R,4R)-2-{trans-4-[(3S,4S)-3,4-dihydroxypyrrolidine-1-carbonyl]cyclohexyl}-7-(trifluoromethoxy)-3,4-dihydro-2H-1-benzopyran-4-yl]-2,2-difluoro-7-methyl-6,7-dihydro-2H-furo[2,3-f][1,3]benzodioxole-7-carboxamide] | 60 | 168 | 10 | 106
7 | C[C@]1(C(=O)N[C@@H]2C[C@H]([C@H]3CC[C@H](C(=O)NCC(O)CO)CC3)Oc3cc(OC(F)(F)F)ccc32)COc2cc3c(cc21)OC(F)(F)O3 (stereo partly drawn) [Example 260, (7R)—N-[(2R,4R)-2-{trans-4-[(2,3-dihydroxypropyl)carbamoyl]cyclohexyl}-7-(trifluoromethoxy)-3,4-dihydro-2H-1-benzopyran-4-yl]-2,2-difluoro-7-methyl-6,7-dihydro-2H-furo[2,3-f][1,3]benzodioxole-7-carboxamide] | 130 | 174 | 69 | 129

Further lines, results first:

Row | EC50 [1] [nM] | Maximum % activity (%) [1] [%] | EC50 [2] [nM] | Maximum % activity (%) [2] [%] | Structure (SMILES)
8 | 60 | 157 | 21 | 104 | C[C@]1(C(=O)N[C@@H]2C[C@H]([C@H]3CC[C@H](C(=O)NCCO)CC3)Oc3cc(OC(F)(F)F)ccc32)COc2cc3c(cc21)OC(F)(F)O3 [Example 261, (7R)-2,2-difluoro-N-[(2R,4R)-2-{trans-4-[(2-hydroxyethyl)carbamoyl]cyclohexyl}-7-(trifluoromethoxy)-3,4-dihydro-2H-1-benzopyran-4-yl]-7-methyl-6,7-dihydro-2H-furo[2,3-f][1,3]benzodioxole-7-carboxamide]
9 | 70 | 167 | 4 | 118 | CCCN(CCO)C(=O)[C@H]1CC[C@H]([C@H]2C[C@@H](NC(=O)[C@@]3(C)COc4cc5c(cc43)OC(F)(F)O5)c3ccc(OC(F)(F)F)cc3O2)CC1 [Example 263, (7R)-2,2-difluoro-N-[(2R,4R)-2-{trans-4-[(2-hydroxyethyl)(propyl)carbamoyl]cyclohexyl}-7-(trifluoromethoxy)-3,4-dihydro-2H-1-benzopyran-4-yl]-7-methyl-6,7-dihydro-2H-furo[2,3-f][1,3]benzodioxole-7-carboxamide]
10 | 470 | 154 | 117 | 134 | COc1ccc2c(c1)O[C@@H]([C@H]1CC[C@H](C(=O)N3C[C@H](O)[C@@H](O)C3)CC1)C[C@H]2NC(=O)[C@@]1(C)COc2cc3c(cc21)OC(F)(F)O3 [Example 281, (7R)—N-[(2R,4R)-2-{trans-4-[(3S,4S)-3,4-dihydroxypyrrolidine-1-carbonyl]cyclohexyl}-7-methoxy-3,4-dihydro-2H-1-benzopyran-4-yl]-2,2-difluoro-7-methyl-6,7-dihydro-2H-furo[2,3-f][1,3]benzodioxole-7-carboxamide]
11 | 1860 | 135 | 282 | 100 | C[C@]1(C(=O)N[C@@H]2C[C@H](C3(C(=O)N4C[C@H](O)[C@@H](O)C4)CC3)Oc3cc(OC(F)(F)F)ccc32)COc2cc3c(cc21)OC(F)(F)O3 [Example 282, (7R)—N-[(2R,4R)-2-{1-[(3S,4S)-3,4-dihydroxypyrrolidine-1-carbonyl]cyclopropyl}-7-(trifluoromethoxy)-3,4-dihydro-2H-1-benzopyran-4-yl]-2,2-difluoro-7-methyl-6,7-dihydro-2H-furo[2,3-f][1,3]benzodioxole-7-carboxamide]
